Test results: publication PMC10451623 (Antioxidants, 2023)

Key:
human PPARδ = target: T1, human PPARδ (Homo sapiens, UniProt Q03181); assay: Transactivation assay (GAL4–hPPARδ-LBD chimera, luciferase reporter, COS-7 cells); format: cell-based; conditions: for Emax: COS-7, read-out: Efficacy, PPARδ transactivation (% of the maximal response); for EC50: COS-7 cells, GAL4–hPPARδ-LBD
T1 construct: expressed in transfected cells; host or cells: COS-7
T1 sequence (Q03181 211-439 limits assumed): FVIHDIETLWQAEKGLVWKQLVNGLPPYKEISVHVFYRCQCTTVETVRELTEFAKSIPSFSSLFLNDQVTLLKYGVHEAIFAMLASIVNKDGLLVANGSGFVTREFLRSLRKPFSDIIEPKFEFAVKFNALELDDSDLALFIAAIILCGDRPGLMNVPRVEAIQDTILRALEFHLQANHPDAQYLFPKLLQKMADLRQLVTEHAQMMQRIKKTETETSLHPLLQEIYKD
Procedure: The pSG5-GAL–hPPARα/δ/γ plasmids express fusion proteins comprising the yeast transcription factor GAL4 DNA-binding domain and each of the human PPARα/δ/γ-LBDs. The MH100(UAS)×4-tk-Luc plasmid contains four copies of the MH100 GAL4 binding site and the Firefly luciferase gene. The cells were transfected with those plasmids and were treated with various PPAR ligands, and both Firefly and Renilla luciferase activities were measured using the Dual-Glo Luciferase Assay System (Promega, Madison, WI, USA) as described previously. […] GW1929 was purchased from Sigma-Aldrich (St. Louis, MO, USA).
For the undertaking of the comparison of the potency, efficacy, and selectivity of the five PPAR ligands (Figure 1A) against the PPAR subtypes, we evaluated their PPARα/δ/γ activation using three different methods: a cell-based transactivation assay, a coactivator recruitment assay, and a thermal stability assay, as we previously performed on three fibrates (namely, bezafibrate, fenofibric acid, and pemafibrate). The cell-based transactivation assay utilizing the Gal4–PPAR-LBD system is the most widely used method for the determination of PPAR activation by certain ligands, although their responses depend on the used cell types in which several coactivators with altered functions are differentially expressed.
Figure 1 LBD-mediated human PPARα/δ/γ transactivation by PPAR ligands. (A) Chemical structures of the five PPAR ligands used in this study. […] Data are presented as the mean ± standard error (SE) of three independent experiments with duplicate samples.

PPARγ-LBD = target: T2, PPARγ-LBD (Homo sapiens, UniProt P37231); assay: TR-FRET SRC1 coactivator recruitment assay; format: biochemical; parameters: PPARγ-LBD (amino acids 203–477 in isoform 1); made in house; host or cells: Rosetta (DE3) pLysS (E. coli); conditions: SRC1 peptide, read-out: EC50, SRC1 recruitment to PPARγ-LBD
T2 sequence (P37231 203-477 isoform P37231-2): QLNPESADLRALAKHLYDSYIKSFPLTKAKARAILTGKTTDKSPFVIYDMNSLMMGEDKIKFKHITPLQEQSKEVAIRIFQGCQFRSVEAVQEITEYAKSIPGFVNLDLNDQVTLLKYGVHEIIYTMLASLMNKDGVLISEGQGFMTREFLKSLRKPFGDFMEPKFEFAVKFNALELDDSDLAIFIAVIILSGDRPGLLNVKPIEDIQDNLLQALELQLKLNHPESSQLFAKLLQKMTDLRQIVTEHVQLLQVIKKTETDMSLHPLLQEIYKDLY
Procedure: (§1) Subsequently, 5 µL of 4 nM Eu-W1024-labeled anti-6×His antibody/80 nM ULight-Streptavidin (PerkinElmer) was added to each well, and the microplate was incubated in the dark for 2 h, at room temperature. […] The nonlinear fitting and the calculation of the EC50 were performed using the Prism 9 software (GraphPad, San Diego, CA, USA).
(§2) The ligand-bound activated forms of PPARs are stabilized by associations with specific coactivators, thereby enabling the regulation of specific gene expression.
(§3) Figure 2 TR-FRET-based LBD-mediated human PPARα/δ/γ coactivator recruitment assay. […] Data are presented as the mean ± SE of three or four independent experiments with duplicate samples, and the calculated EC50 values are shown.

PPARδ-LBD = target: T3, PPARδ-LBD (Homo sapiens, UniProt Q03181); assay: TR-FRET SRC1 coactivator recruitment assay; format: biochemical; parameters: PPARδ-LBD (amino acids 170–441); made in house; host or cells: Rosetta (DE3) pLysS (E. coli); conditions: for EC50: TR-FRET, SRC1 peptide, read-out: EC50, SRC1 recruitment to PPARδ-LBD
T3 sequence (Q03181 170-441): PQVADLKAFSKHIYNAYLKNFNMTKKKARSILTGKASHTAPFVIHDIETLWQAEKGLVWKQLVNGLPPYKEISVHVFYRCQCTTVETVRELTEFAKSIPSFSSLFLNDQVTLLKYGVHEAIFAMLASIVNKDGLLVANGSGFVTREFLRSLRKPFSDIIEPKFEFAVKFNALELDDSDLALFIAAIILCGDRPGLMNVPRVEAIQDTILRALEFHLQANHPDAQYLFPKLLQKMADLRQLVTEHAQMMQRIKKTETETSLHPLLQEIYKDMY
Procedure: as §1, §2, §3

Emax (human PPARδ) [%]	EC50 (PPARγ-LBD) [µM]	EC50 (human PPARδ) [µM]	EC50 (PPARδ-LBD) [µM]	Efficacy, SRC1 recruitment to PPARδ-LBD (PPARδ-LBD; 100% = 1 µM GW501516) [%]	SMILES
14.8	11.8				CSc1ccc(C(=O)/C=C/c2cc(C)c(OC(C)(C)C(=O)O)c(C)c2)cc1 [elafibranor]
13.3	7.57	0.398	4.44		O=C(O)CCCc1cc2cc(Cl)ccc2n1S(=O)(=O)c1ccc2ncsc2c1 [lanifibranor]
6	3.44	> 10	> 100		CCO[C@@H](Cc1ccc(OCCn2c(C)ccc2-c2ccc(SC)cc2)cc1)C(=O)O [saroglitazar]
99.3	> 300	0.0202	0.111	83.0	CCO[C@H](COc1ccc(C(F)(F)F)cc1)CSc1ccc(OCC(=O)O)c(C)c1 [seladelpar]
